Measured values published in patent publication US4591599A, “Perfluoropyrrolizines and emulsions thereof useful as blood substitutes” (The Green Cross Corporation, priority 1984, dated 1986).

Tests used:
[1] = Distribution of perfluoro-compound in organs (gas chromatography); format: in vivo, Wister-strain male rats; settings: 4 g/kg, tail vein, rats
[2] = tested on: Wister-strain male rats; test: Acute toxicity test; format: in vivo; settings: 100 ml/kg-body weight, intravenous, observed for one week
Method: The acute toxicity test on the preparations of the present invention was carried out using the preparations of the present invention shown in Table 4 which had been physiologically isotonized. The test animals used were Wister-strain male rats (weighing 100-120 g).

SMILES | adverse influence on the liver or spleen organ ([1]; 3 months) | uptake by and disappearance from the reticulo-endothelial organs ([1]; 3 months) | Residual Rate of perfluorobicyclo compound ([1]; Liver, 1 week after administration) [%] | Residual Rate of perfluorobicyclo compound ([1]; Liver, 2 weeks after administration) [%] | Residual Rate of perfluorobicyclo compound ([1]; Liver, 3 months after administration) [%] | Residual Rate of perfluorobicyclo compound ([1]; Liver, 4 weeks after administration) [%] | Residual Rate of perfluorobicyclo compound ([1]; Spleen, 1 week after administration) [%] | Residual Rate of perfluorobicyclo compound ([1]; Spleen, 2 weeks after administration) [%] | Residual Rate of perfluorobicyclo compound ([1]; Spleen, 3 months after administration) [%] | Residual Rate of perfluorobicyclo compound ([1]; Spleen, 4 weeks after administration) [%] | death cases [2]
FC(F)(F)C1(F)N2C(F)(F)C(F)(F)C(F)(F)C(F)(F)C2(F)C(F)(F)C(F)(F)C1(F)F (stereo not drawn) [Example 1, perfluoro-4-methyloctahydroquinolidine] | no evidence of adverse influence on the liver or spleen organ | taken up in greater amounts by the reticulo-endothelial organs shortly after the administration, but soon disappeared rapidly | 19.92 | 8.66 | 0.30 | 1.88 | 11.61 | 9.33 | 0.09 | 2.45 | no death case
FC(F)(F)C(F)(F)C1(F)N2C(F)(F)C(F)(F)C(F)(F)C(F)(F)C2(F)C(F)(F)C(F)(F)C1(F)F (stereo not drawn) [Example 101, perfluoro-4-ethyloctahydroquinolidine] | – | – | – | – | – | – | – | – | – | – | no death case
